Here are results for two compounds from paper PMC6156121 (Science Advances, 2018).

Some targets named below: mTORC3 (Homo sapiens, UniProt P42345); mTORC2 (Homo sapiens, UniProt P42345); mTORC1 (Homo sapiens, UniProt P42345).
Experiment in all cases: IP kinase assay, GST-P70S6K peptide, anti-p-P70S6K Thr389 immunoblot
Common to all, as to format: biochemical
Holding throughout (conditions): […] inhibitor, […] ATP, […] MgCl2, pH […] C; ATP-competitive

Regarding `COc1ccc(-c2ccc3c(N4CCOC[C@@H]4C)nc(N4CCOC[C@@H]4C)nc3n2)cc1CO` [AZD-8055], the “IP kinase assay, GST-P70S6K peptide, anti-p-P70S6K Thr389 immunoblot” value at mTORC3 is given as “preincubation with OSI-27 or AZD-8055 at an mTOR-specific concentration inhibited the kinase activity”; on mTORC2, “inhibited the kinase activity of all mTORCs”; at mTORC1 it was “inhibited the kinase activity of all mTORCs”.
With `COc1cccc2cc(-c3nc([C@H]4CC[C@H](C(=O)O)CC4)n4ncnc(N)c34)[nH]c12` [OSI-27], the “IP kinase assay, GST-P70S6K peptide, anti-p-P70S6K Thr389 immunoblot” value on mTORC3 is recorded as “preincubation with OSI-27 or AZD-8055 at an mTOR-specific concentration inhibited the kinase activity”; at mTORC2, “inhibited the kinase activity of all mTORCs”; at mTORC1, “inhibited the kinase activity of all mTORCs”.
